Several values for one entry are separate records, joined by “and”; a condition that tells them apart may be missing. Identical values can stand only once.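 The compound was tested at five concentrations on cells cultured in 96-well plates, with a 48-hour exposure period. GI50 is the concentration that inhibits growth by half. TGI: concentration producing complete growth inhibition.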 Bounds are passed on as bounds.

This is an account of results in PubChem BioAssay (NCI).

Some test systems named below: PC-3 prostate; CCRF-CEM leukemia; COLO 205 colon; NCI-H522 lung; SNB-75 CNS; IGROV1 ovarian; OVCAR-5 ovarian; A498 renal; SK-MEL-5 melanoma; HT29 colon.
Assay in all cases: growth of human tumour cells (NCI), 48 h

For the compound `COc1nc(N)nc2c1ncn2C1OC(CO)C(O)C1O` (configuration not stated), the GI50 in the assay on PC-3 prostate is greater than 5000 µM; with CCRF-CEM leukemia, 8460 nM; in the assay with COLO 205 colon, 520000 nM; with NCI-H522 lung it was greater than 5000 µM; with SNB-75 CNS it was greater than 5000 µM; with OVCAR-5 ovarian, greater than 5000 µM. In addition, the GI50 with A498 renal is greater than 5000 µM; with SK-MEL-5 melanoma, 164000 nM; in the assay on HT29 colon, greater than 5000 µM. In addition, the TGI is greater than 5000 µM in the assay on PC-3 prostate; 2250 µM in the assay on COLO 205 colon; greater than 5000 µM with NCI-H522 lung; greater than 5000 µM in the assay with SNB-75 CNS; greater than 5000 µM with IGROV1 ovarian; greater than 5000 µM in the assay on OVCAR-5 ovarian. Also, the TGI in the assay with A498 renal, in the assay with SK-MEL-5 melanoma and in the assay on HT29 colon was greater than 5000 µM throughout.

On to `COc1ccc(C(=O)c2cc3c(N)c(C(=O)Nc4ccc(C)cc4)sc3nc2C)cc1`, for which the GI50 with PC-3 prostate was 4.2 µM; in the assay with CCRF-CEM leukemia, 3760 nM; with COLO 205 colon, 3470 nM; with NCI-H522 lung, 2.06 µM; with SNB-75 CNS, 0.571 µM; in the assay on IGROV1 ovarian, 6250 nM. Also, the GI50 with OVCAR-5 ovarian is 7.13 µM; in the assay on A498 renal it was 1.5 µM; with SK-MEL-5 melanoma, 3140 nM; with HT29 colon, 2.74 µM. For the same compound, the TGI with PC-3 prostate is greater than 100 µM; in the assay with CCRF-CEM leukemia it was greater than 100 µM; in the assay with COLO 205 colon it was greater than 100 µM; in the assay with NCI-H522 lung, 11.2 µM; in the assay with SNB-75 CNS, 5.99 µM; in the assay on IGROV1 ovarian, 38.2 µM. In addition, the TGI was greater than 100 µM in the assay on OVCAR-5 ovarian, 9.59 µM in the assay with A498 renal, 11.5 µM with SK-MEL-5 melanoma and 15.2 µM in the assay on HT29 colon.

Take `CN1C(=O)N[C@H]2[C@@H]3NC(=O)c4ccc(Br)n4[C@@H]3C[C@]21O`: the GI50 is 0.475 µM with PC-3 prostate; 25.2 nM in the assay on CCRF-CEM leukemia; 83.2 nM with COLO 205 colon; 0.0384 µM in the assay with NCI-H522 lung; 0.106 µM with SNB-75 CNS; 61.7 nM in the assay with IGROV1 ovarian. The GI50 in the assay on OVCAR-5 ovarian is 1.03 µM; in the assay with A498 renal it was 0.27 µM; in the assay on SK-MEL-5 melanoma it was less than 14.8 nM; in the assay on HT29 colon it was 0.0956 µM. Also, the TGI in the assay on PC-3 prostate stood at 5.42 µM; with CCRF-CEM leukemia it was 0.327 µM; in the assay on COLO 205 colon it was 1.18 µM; in the assay with NCI-H522 lung it was 0.31 µM; in the assay on SNB-75 CNS it was 0.969 µM; with IGROV1 ovarian, 1.6 µM. Further, the TGI with OVCAR-5 ovarian was 6.3 µM; in the assay with A498 renal, 1.17 µM; with SK-MEL-5 melanoma, 0.0653 µM; in the assay with HT29 colon, 2.29 µM.

As for `Cc1nc(N2CCC3(CC2)CO[C@@H](C)[C@H]3N)c(CO)nc1Sc1ccnc(N)c1Cl`, the GI50 is greater than 100 µM in the assay with PC-3 prostate; greater than 91300 nM in the assay with CCRF-CEM leukemia; greater than 73400 nM in the assay with COLO 205 colon; 1.32 µM in the assay on NCI-H522 lung; 0.518 µM in the assay with SNB-75 CNS; 629 nM with IGROV1 ovarian. Also, the GI50 with OVCAR-5 ovarian is greater than 100 µM; with A498 renal it was 0.657 µM; in the assay with SK-MEL-5 melanoma, 14100 nM; in the assay on HT29 colon, greater than 100 µM. Moreover, the TGI in the assay on PC-3 prostate, in the assay on CCRF-CEM leukemia, in the assay on COLO 205 colon, in the assay on NCI-H522 lung, in the assay on SNB-75 CNS and in the assay on IGROV1 ovarian was greater than 100 µM each time. For the same compound, the TGI was greater than 100 µM with OVCAR-5 ovarian, greater than 100 µM in the assay with A498 renal, 35 µM in the assay on SK-MEL-5 melanoma and greater than 100 µM in the assay with HT29 colon.

On to `COc1cccc(NC(=O)c2sc3nc4c(cc3c2N)C(=O)CCC4)c1`, for which the GI50 was 0.11 µM in the assay on PC-3 prostate; 89.3 nM with CCRF-CEM leukemia; 83.4 nM in the assay on COLO 205 colon; 0.0499 µM in the assay on NCI-H522 lung; 0.0579 µM in the assay with SNB-75 CNS; 381 nM in the assay on IGROV1 ovarian. In addition, the GI50 was 0.635 µM in the assay on OVCAR-5 ovarian, 0.0521 µM in the assay with A498 renal, 64 nM with SK-MEL-5 melanoma and 0.0866 µM in the assay on HT29 colon. Further, the TGI in the assay with PC-3 prostate was greater than 100 µM; in the assay with CCRF-CEM leukemia, greater than 100 µM; with COLO 205 colon, 2.15 µM; in the assay on NCI-H522 lung, 2.41 µM; in the assay on SNB-75 CNS, 12.7 µM; in the assay with IGROV1 ovarian, greater than 100 µM. The TGI was greater than 100 µM in the assay on OVCAR-5 ovarian, 0.83 µM with A498 renal, greater than 100 µM in the assay on SK-MEL-5 melanoma and greater than 100 µM in the assay with HT29 colon.

For the compound `Cc1cc(C)c(NC(=S)NC(=O)c2ccccc2)cc1C`, the TGI in the assay on PC-3 prostate, with CCRF-CEM leukemia, in the assay with COLO 205 colon, with NCI-H522 lung, in the assay on SNB-75 CNS and with IGROV1 ovarian was greater than 100 µM each time. For the same compound, the TGI in the assay on OVCAR-5 ovarian, with A498 renal, in the assay with SK-MEL-5 melanoma and in the assay with HT29 colon was greater than 100 µM each time.

In the case of `O=C(/C=C/c1ccccc1)n1c(-c2ccc(Cl)cc2)nc2ccccc21`, the GI50 with PC-3 prostate is 1.91 µM; with CCRF-CEM leukemia it was 731 nM; with COLO 205 colon, 1410 nM; in the assay on NCI-H522 lung, 1.23 µM; in the assay on SNB-75 CNS, 1.44 µM; with IGROV1 ovarian, 1950 nM. For the same compound, the GI50 with OVCAR-5 ovarian is 1.74 µM; with A498 renal, 1.17 µM; with SK-MEL-5 melanoma, 1640 nM; in the assay on HT29 colon, 1.51 µM. Also, the TGI with PC-3 prostate turned out to be 6.73 µM; with CCRF-CEM leukemia it was 3.45 µM; with COLO 205 colon, 2.78 µM; with NCI-H522 lung, 2.64 µM; in the assay with SNB-75 CNS, 3.77 µM; with IGROV1 ovarian, 4.63 µM. Further, the TGI in the assay with OVCAR-5 ovarian stood at 4.21 µM; with A498 renal, 2.56 µM; in the assay with SK-MEL-5 melanoma it was 3.12 µM; in the assay on HT29 colon, 3.71 µM.

For `Cc1ccc(C)c(C2NC(=O)c3ccccc3N2)c1` (configuration not stated), the TGI in the assay with PC-3 prostate is 28.3 µM; in the assay on CCRF-CEM leukemia, greater than 25.5 µM; in the assay on COLO 205 colon, 7.06 µM; with NCI-H522 lung, 3.52 µM; in the assay on SNB-75 CNS, 15.2 µM; in the assay with IGROV1 ovarian, greater than 100 µM. Moreover, the TGI with OVCAR-5 ovarian is greater than 69.7 µM; with A498 renal it was 32 µM; with SK-MEL-5 melanoma, 21.3 µM; in the assay with HT29 colon it was greater than 54.2 µM.

As for `Cc1sc2c(c1C)C(c1ccc(Cl)cc1)=N[C@@H](CC(=O)OC(C)(C)C)c1nnc(C)n1-2`, the GI50 in the assay on PC-3 prostate is 1.58 µM and 1.08 µM; with CCRF-CEM leukemia, 644 nM and 773 nM; with COLO 205 colon, 378 nM and 143 nM; in the assay with NCI-H522 lung, 0.179 µM and 0.0566 µM; in the assay with SNB-75 CNS, 0.0325 µM and 0.025 µM; in the assay with IGROV1 ovarian, 808 nM and 645 nM. In addition, the GI50 with OVCAR-5 ovarian was 11.9 µM and 10.4 µM; in the assay with A498 renal, 0.267 µM and 0.0617 µM; with SK-MEL-5 melanoma, 96.6 nM and 337 nM; with HT29 colon, 0.209 µM and 0.0986 µM. For the same compound, the TGI in the assay on PC-3 prostate is 24.6 µM and 16.7 µM; in the assay with CCRF-CEM leukemia, 23 µM and 22.9 µM; with COLO 205 colon, 11.7 µM and 3.8 µM; in the assay with NCI-H522 lung, 7.38 µM and 11.6 µM; in the assay on IGROV1 ovarian, 25 µM and 18.9 µM; with OVCAR-5 ovarian, 25 µM and 22.7 µM. Also, the TGI was 1.46 µM and 1.15 µM in the assay with A498 renal; 4.27 µM and 14.2 µM with SK-MEL-5 melanoma; 14.9 µM with HT29 colon.

As to `CCCC(CCC)C(=O)OCC1(CO)C/C(=C\c2ccc(F)cc2)C(=O)O1` (configuration not stated), the GI50 with PC-3 prostate was 10.4 µM; with CCRF-CEM leukemia, 23.3 nM; with COLO 205 colon, 545 nM; in the assay with NCI-H522 lung it was 14.5 µM; with SNB-75 CNS it was 7.99 µM; in the assay on IGROV1 ovarian it was 15500 nM. Moreover, the GI50 in the assay with OVCAR-5 ovarian is 16.6 µM; in the assay on A498 renal, 1.46 µM; in the assay with SK-MEL-5 melanoma it was 829 nM; in the assay with HT29 colon it was 13.6 µM. The TGI with PC-3 prostate is 25 µM; in the assay with CCRF-CEM leukemia, 0.107 µM; in the assay with COLO 205 colon it was 8.74 µM; in the assay with NCI-H522 lung, 30.4 µM; in the assay with SNB-75 CNS, 22.8 µM; in the assay on IGROV1 ovarian, 32.7 µM. Besides, the TGI in the assay with OVCAR-5 ovarian was 31.4 µM; in the assay on A498 renal, 12.4 µM; in the assay with SK-MEL-5 melanoma, 17 µM; with HT29 colon, 27.3 µM.

As to `O=C(O)C(Cl)(c1ccccc1)c1ccccc1`, the TGI with PC-3 prostate, in the assay with CCRF-CEM leukemia, in the assay with COLO 205 colon, in the assay with NCI-H522 lung, in the assay with SNB-75 CNS and with IGROV1 ovarian was greater than 100 µM throughout. The TGI in the assay on OVCAR-5 ovarian, in the assay on A498 renal, in the assay with SK-MEL-5 melanoma and in the assay on HT29 colon was greater than 100 µM throughout.

Regarding `COc1cccc(C2c3cc4c(cc3OC(N3CCCC3)C2C)OCO4)c1O` (configuration not stated), the TGI is 73.5 µM in the assay with PC-3 prostate; greater than 100 µM with CCRF-CEM leukemia; 10.5 µM in the assay with COLO 205 colon; 20 µM with NCI-H522 lung; 8.29 µM in the assay on SNB-75 CNS; 99.1 µM in the assay on IGROV1 ovarian. Further, the TGI in the assay with OVCAR-5 ovarian was greater than 100 µM; with A498 renal, 33.7 µM; in the assay with SK-MEL-5 melanoma, 16.3 µM; in the assay on HT29 colon, 14.7 µM.

As to `OCC(O)c1nc2ccc3[nH]ncc3c2c2c1CCCC2` (configuration not stated), the GI50 in the assay on PC-3 prostate was 1.43 µM; in the assay with CCRF-CEM leukemia it was 1620 nM; in the assay on COLO 205 colon, 1230 nM; in the assay with NCI-H522 lung, 1.5 µM; with SNB-75 CNS, 0.849 µM; in the assay on IGROV1 ovarian, 1380 nM. Moreover, the GI50 was 1.53 µM in the assay with OVCAR-5 ovarian, 0.876 µM in the assay with A498 renal, 1020 nM in the assay with SK-MEL-5 melanoma and 1.27 µM in the assay on HT29 colon. The TGI in the assay on PC-3 prostate was greater than 50 µM; in the assay with CCRF-CEM leukemia, greater than 50 µM; in the assay on COLO 205 colon it was 3.43 µM; in the assay on NCI-H522 lung it was 9.87 µM; in the assay on SNB-75 CNS, 1.6 µM; with IGROV1 ovarian it was greater than 50 µM. For the same compound, the TGI in the assay on OVCAR-5 ovarian is greater than 50 µM; in the assay on A498 renal it was 1.75 µM; in the assay on SK-MEL-5 melanoma it was 2.99 µM; in the assay on HT29 colon it was greater than 50 µM.
